Reference: patent US20030018008A1, “Formulations of adenosine a1 agonists” (priority 1999, published 2003)

Test system: carrageenan-induced oedema and allodynia
Experiment: Carrageenan model: weight bearing (allodynia) and paw oedema of the inflamed hind paw
Assay type: in vivo, rat
Settings: for % Weight on inflammed paw (Allodynia): 3 h after intraplantar 2% carrageenan, 50% = no pain; for % Inhibition of carrageenan-induced allodynia / % Inhibition of carrageenan-induced oedema: compared to vehicle control; for % Inhibition of carrageenan-induced oedema: plethysmometer
Experimental: Carrageenan model for (2S, 3S, 4R, 5R)-2-(5 tert-butyl-[1,3,4]oxadiazol-2-yl)-5-[6-(4-chloro-2-fluoro-phenylamino)-purin-9-yl]-tetrahvdro-furan-3,4-diol (Adenosine A1 agonist) and alosetron.
Male Random Hooded rats (180-220 g) were used. The test compound or vehicle was administered 30 mins before the 2nd test compound or vehicle. The test compounds and vehicles used were: (i) Compound A in 1% DMSO, 66% Peg400, 33% distilled water and (ii) alosetron in saline. Both test compounds were administered via the oral route. After a further 30 mins 100 ul of 2% carrageenan was injected intraplantar into the left hind paw and the animals were then returned to their cages. Three hours later, behavioural testing of the carrageenan-induced decrease in weight on the inflamed left hind paw (% weight on the inflammed left hind paw) and associated oedema was assessed. Weight bearing was measured using the dual channel weight averager and paw oedema was assessed using a plethysmometer. The dual channel weight averager is commercially available and is described in the following abstract: Validation of the dual channel weight averager as an instrument for the measurement of inflammatory pain, N. M. Clayton et al., 1997 British Journal Pharmacol. 120, 219P.
Note: In the absense of pain, weight on the hind paws would be evenly distributed, i.e. 50% on each hind paw.
Note: Oedema is the presence of abnormally large amounts of fluid in the intercellular tissue spaces of the body and in the present example is used to provide a measure of inflammation (or anti-oedemic). Allodynia is a sensation of pain resulting from a non-injurious stimulus such as normal heat, cold or pressure on skin and in the present example the weight-bearing (allodynia) effect in used to provide a measure of analgesia.

SMILES: CC(C)(C)c1nnc([C@H]2O[C@@H](n3cnc4c(Nc5ccc(Cl)cc5F)ncnc43)[C@H](O)[C@@H]2O)o1 [Compound A, (2S, 3S, 4R, 5R)-2-(5 tert-butyl-[1,3,4]oxadiazol-2-yl)-5-[6-(4-chloro-2-fluoro-phenylamino)-purin-9-yl]-tetrahydro-furan-3,4-diol]
- % Weight on inflammed paw (Allodynia) (Compound A 0.4 mg/kg oral): 20.7 ± 4.3%
- % Inhibition of carrageenan-induced allodynia (Compound A 0.4 mg/kg oral): 2.1 ± 14.3%
- % Inhibition of carrageenan-induced oedema (Compound A 0.4 mg/kg oral): −3.1 ± 8.2%

SMILES: Cc1[nH]cnc1CN1CCc2c(c3ccccc3n2C)C1=O [Alosetron, 2,3,4,5-tetrahydro-5-methyl-2-[(5-methyl-1H-imidazol-4-yl)methyl]-1H-pyrido[4,3-b]indol-1-one]
- % Weight on inflammed paw (Allodynia) (Alosetron 0.3 mg/kg oral): 33.6 ± 5.5%
- % Inhibition of carrageenan-induced allodynia (Alosetron 0.3 mg/kg oral): 45.1 ± 18.4%
- % Inhibition of carrageenan-induced oedema (Alosetron 0.3 mg/kg oral): 28.2 ± 6.3%
